Data from PubChem BioAssay AID2695 (Broad Institute, 2010).
Values after ≈ are worked out from the molar mass of the structure shown. Inconclusive results are not listed. Active and inactive are the calls of the source.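 The calls were made as follows: active = a dose response, with MIC, the lowest growth-blocking dose, below the top tested dose; inconclusive = replicates split around the top dose, or self-fluorescent without titration; inactive = MIC above the top tested dose.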

The compounds below were run on C. albicans SC5314 growth, alamar blue fluorescence (assay: C. albicans growth inhibition, dose response, SC5314, Alamar Blue fluorescence (AID 2695)). Details: 6.5 h.

| MIC | Structure (SMILES) |
| --- | --- |
| 2.1 µM (≈ 0.618 µg/mL) | Cc1ccc2nc(/C(C#N)=C/c3ccc([N+](=O)[O-])o3)[nH]c2c1 |
| 16.6 µM (≈ 4.54 µg/mL) | CC(=O)c1ccc(Sc2ccccc2)c([N+](=O)[O-])c1 |
| 4.1 µM (≈ 1.15 µg/mL) | N#C/C(=C/c1ccc([N+](=O)[O-])o1)c1nc2ccccc2[nH]1 |
| > 33 µM (inactive) | Cc1ccc(Nc2c(-c3ccc(C)o3)nc3ncccn23)cc1 |
| > 33 µM (inactive) | O=C(Oc1c(-c2ccccc2)c(=O)n2c3c(cccc13)CC2)c1cccc([N+](=O)[O-])c1 |

The remaining lines, values behind:

| Structure (SMILES) | MIC |
| --- | --- |
| COc1cc(/C=C2/SC(=S)N(Cc3ccccc3)C2=O)cc(OC)c1O | 17.5 µM (≈ 6.78 µg/mL) |
| O=C(O)CN1C(=O)/C(=C\c2ccc(N3CCCCC3)o2)SC1=S | > 33 µM (inactive) |
| O=C(COC(=O)Cc1ccc(S(=O)(=O)N2CCOCC2)s1)NCc1ccc(Cl)cc1 | > 33 µM (inactive) |
| COc1cc(/C=C2/CC/C(=C/c3ccc(O)c(OC)c3)C2=O)ccc1O | > 33 µM (inactive) |
| Cc1ccc(C(=O)c2no[n+]([O-])c2C(=O)c2ccc(C)cc2)cc1 | 16.6 µM (≈ 5.35 µg/mL) |
| COc1cc(/C=C2\SC(=S)N(NC(=O)c3cccnc3)C2=O)ccc1O | > 33 µM (inactive) |
| Nc1ncnc2c1ncn2C1OC(CO)CC1O (stereo unspecified) | > 33 µM (inactive) |
| CCOc1cc(/C=C2\N=C(SC(C)C(N)=O)N(c3ccc(OC(F)F)cc3)C2=O)ccc1O (stereo unspecified) | > 33 µM (inactive) |
| N#CC1(C#N)C2=C(CCCC2)NC(c2ccccc2)C1(C#N)C#N (stereo unspecified) | > 33 µM (inactive) |
| Cc1ccc(-c2nn3c(C)nnc3s2)cc1NC(=O)CSc1ccc(Cl)cc1 | > 33 µM (inactive) |
| COc1cc(/C=C2\SC(=S)N(NC(=O)c3ccncc3)C2=O)ccc1O | > 33 µM (inactive) |
